pIC50: −log10 of the molar value. Where a name gives a salt, the structure may show the parent alone.
Molecular target: α7-subtype of nicotinic receptors (Rattus norvegicus, UniProt Q05941)
Experiment: biochemical
Format: binding

Sequence of α7-subtype of nicotinic receptors (Q05941 23-502): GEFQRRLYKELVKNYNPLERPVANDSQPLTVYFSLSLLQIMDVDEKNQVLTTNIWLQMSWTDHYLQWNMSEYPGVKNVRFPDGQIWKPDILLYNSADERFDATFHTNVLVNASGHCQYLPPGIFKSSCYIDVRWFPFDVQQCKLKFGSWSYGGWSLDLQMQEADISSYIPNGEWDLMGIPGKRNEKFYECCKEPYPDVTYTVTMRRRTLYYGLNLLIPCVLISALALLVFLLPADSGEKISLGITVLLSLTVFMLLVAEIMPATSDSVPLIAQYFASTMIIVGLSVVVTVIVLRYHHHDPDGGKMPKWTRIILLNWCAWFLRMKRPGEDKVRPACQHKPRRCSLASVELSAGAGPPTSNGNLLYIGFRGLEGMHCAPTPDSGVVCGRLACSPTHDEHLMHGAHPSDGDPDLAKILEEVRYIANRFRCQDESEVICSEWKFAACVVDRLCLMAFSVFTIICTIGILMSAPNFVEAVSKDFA

## c1cc2c(c(-c3nnc(N4CCN5CCC4CC5)o3)c1)OCO2 [Compound 1, 4-(5-Benzo[1,3]dioxol-4-yl-[1,3,4]oxadiazol-2-yl)-1,4-diaza-bicyclo[3.2.2]nonane fumaric acid salt]
  pIC50: 7.66

Reference: patent US20120238553A1 (priority 2009, published 2012)
